# Laboratory results taken from patent US9155723B2, “Anti-CXCR4 as a sensitizer to cancer therapeutics” (THE GENERAL HOSPITAL CORPORATION, priority 2010, dated 2015).
# “Also recorded” adds a separate entry of the source. Where two headings read alike, the source gives them in different places.
# How the values were obtained:
# E0771 mammary tumors = system: E0771 mammary tumors
# Protocol: (§1) AMD3100 was delivered by s.c. Alzet pumps containing 10 mg/mL AMD3100 in PBS at a dose of 60 μg/day, and pumps with PBS only were used as a control. The pumps were replaced every 2 wk.
# (§2) Primary tumor tissues were fixed and frozen. Sections were stained with rat antibodies against mouse CD11b, MECA 32, Gr-1 (BD Pharmingen), and F4/80 (Serotec). Cy3- or FITC-conjugated secondary antibodies were used for the detection of signals by confocal microscopy. Slides were counterstained with DAPI for nuclear staining. The number of cells was quantified by measuring the area occupied by immunostained mononuclear cells normalized by the area of DAPI-stained nuclei (i.e., unitless). Phopho-p38 MAPK level was measured by Western blotting.
# (§3) Primary tumor tissues were fixed in 4% paraformaldehyde at 4° C. for 2 h, dehydrated in 30% sucrose overnight, and embedded in optimal cutting temperature (OCT) compound in frozen samples for immunofluorescence histological analyses.
# TRAMP-C1 prostate tumors [1] = system: TRAMP-C1 prostate tumors
# Protocol: as §1, §2, §3
# CD11b+ myeloid BMDCs = test: In vitro migration assay (Boyden chamber), CD11b+ myeloid BMDCs; type: cell-based, mouse
# Protocol: (§4) Bone marrow cells were collected in heparin-mixed PBS. The cellular filtrate was washed and a layer containing mononuclear BM cells was separated using Histopaque-1083 (Sigma). For the migration assay, BM cells were separated by CD11b, F4/80, or Gr-1 magnetic microbeads (MACS-beads; Miltenyi Biotech) from VEGFR1TK+/+ and VEGFR1TK−/− mice as per manufacturer's protocol. These cells were incubated with recombinant proteins for migration assays
# (§5) The migration of mononuclear CD11b+ BMDCs (2×10^6 cells per mL), F4/80+ BMDCs (8×10^5 cells per mL), and Gr-1+ BMDCs (8×10^5 cells per mL) was evaluated using a chemotaxis Boyden chamber (Neuroprobe). The upper and lower wells were separated by a […] pore size polyvinylpyrrolidone-free polycarbonate filter (Nucreopore; Costar). […] A 50-μl aliquot of the cell suspension was seeded in the upper wells and incubated for 3 h at 37° C. with 5% CO2. The number of cells that migrated through the membrane was counted.
# To reveal the mechanism of action of VEGFR1 and CXCR4 in myeloid BMDCs, bone marrow cells were harvested from C57BL/6 and VEGFR1 TK−/− mice and purified mononuclear myeloid BMDCs using magnetic separation for CD11b+ cells.
# 54A human lung tumors = settings: AMD3100 osmotic pumps alone for 2 weeks, no irradiation; 54A tumors
# From the text: (§6) 54A human lung tumors were xenografted in male athymic NCr/Sed nude (nu/nu) mice, and MCa8 mouse mammary carcinomas were implanted in female syngeneic FVB mice (both subcutaneously in the hind limb; refs. 3, 11). To detect specific BMDC populations in tumors (i.e., Tie2^+CD11b^− EPCs and Tie2^+CD11b^+ TEMs), irradiated wild-type FVB mice were irradiated with 9 Gy of whole-body irradiation (WBI) followed by restorative bone marrow transplantation (BMT) from Tie2-GFP-FVB donors to create chimeric wild-type/Tie2-GFP-BMT mice (3). MCa8 tumors were implanted in these mice 6 weeks post-BMT.
# (§7) Tumor size was measured with a caliper at least thrice a week. When a tumor reached 5.5 mm in mean diameter, the mouse was randomized to a treatment group. Tumors were γ-irradiated using the same dose delivered either locally alone or locally plus a sublethal WBI dose of 6 Gy. […] Unsorted BMDCs (from femurs and tibias of one tumor- and treatment-naïve donor to two recipients) or fluorescence-activated cell-sorted Sca1^−CD11b^+ (150,000-200,000 cells) or Sca1^+CD11b^+ (25,000-50,000) BMDCs (from one donor to one recipient) were i.v. infused in mice receiving LI plus WBI. […] Therapeutic efficacy was measured as the time taken for tumors to grow to 7.5 mm in diameter (i.e., 2.5-fold increase compared with the pretreatment volume).
# [2] = system: MCa8 mouse mammary carcinomas; settings: AMD3100 osmotic pumps alone for 2 weeks, no irradiation; MCa8 tumors
# From the text: as §6, §7
# TRAMP-C1 prostate tumors [3] = system: TRAMP-C1 prostate tumors; remark: listed apart in the source
# Protocol: TRAMP-C1 tumors were implanted s.c. in male C57BL/6 mice, and E0771 tumors were implanted s.c. in female C57BL/6 mice after BMT and recovery and/or after BMT and Mx-Cre recombination (n=5-6 mice) (SI Materials and Methods). […] Lung tissue was isolated from mice 2-4 wk after removal of the primary tumor.
# as §1
# Mice ranging from 8 to 22 wk old [due to prior bone marrow transplantation (BMT) and/or recombination procedures] were used. […] All experiments were performed at least twice. Metastatic tumor volume was measure by the formula: V=small diameter×long diameter×number of microscopic metastases.
# Gr-1+ BMDCs = settings: in vitro
# Protocol: as §4, §5
# CXCL12 = settings: cited from earlier work
structure (smiles),measurement,setting,value
"c1cc(CN2CCCNCCNCCCNCC2)ccc1CN1CCCNCCNCCCNCC1 [AMD3100, 1,1′-[1,4-phenylene-bis(methylene)]-bis-1,4,8,11-tetraazacyclotetradecane]",TAM infiltration,E0771 mammary tumors; AMD3100 alone,did not affect the TAM infiltration
same,number of total myeloid BMDCs in tumor,E0771 mammary tumors; AMD3100 alone,decreased the number of total myeloid BMDCs
same,microvascular density (MVD),"E0771 mammary tumors; AMD3100 alone, prevention setting",decreased MVD
same,Gr-1+ myeloid BMDC infiltration,E0771 mammary tumors; irrespective of VEGFR1-TK status in BMDCs,decreased Gr-1+ myeloid BMDCs; also recorded: decreases Gr-1^+ BMDC infiltration
same,TAM infiltration,"TRAMP-C1 prostate tumors [1]; AMD3100 alone, TRAMP-C1",did not affect the TAM infiltration
same,number of total myeloid BMDCs in tumor,"TRAMP-C1 prostate tumors [1]; AMD3100 alone, TRAMP-C1",not in TRAMP-C1 tumors
same,Gr-1+ myeloid BMDC infiltration,"TRAMP-C1 prostate tumors [1]; irrespective of VEGFR1-TK status in BMDCs, TRAMP-C1",decreased Gr-1+ myeloid BMDCs; also recorded: decreases Gr-1^+ BMDC infiltration
same,number of Gr-1+ BMDCs during early tumor growth,"TRAMP-C1 prostate tumors [1]; small (4-mm) tumors, preventive setting, TRAMP-C1 model, 8-wk-old mice",significantly decreased the number of Gr-1+ BMDCs; also recorded: significantly reduces Gr-1^+ myeloid BMDC infiltration
same,rCXCL12-induced migration of WT myeloid BMDCs,"CD11b+ myeloid BMDCs; 1 μg/mL of AMD3100, rCXCL12 100 ng/mL, transwell assay",reversed
same,tumor growth,54A human lung tumors,did not affect tumor growth
same,tumor growth,[2],did not affect tumor growth
same,lung metastatic burden after primary tumor resection,"TRAMP-C1 prostate tumors [3]; BMT-VEGFR1^TK−/− mice, TRAMP-C1",significantly reduced metastatic burden
same,growth of established tumors,"TRAMP-C1 prostate tumors [3]; intervention setting, growth from 4 mm to ~1 cm, established TRAMP-C1",less substantial growth delay
same,rCXCL12-induced migration of Gr-1+ BMDCs,Gr-1+ BMDCs,reversed
C[S+]([O-])c1ccc(-c2nc(-c3ccncc3)c(-c3ccc(F)cc3)[nH]2)cc1 (centres unmarked) [SB203580],migration of myeloid BMDCs,"CD11b+ myeloid BMDCs; SB203580 1 μM, rVEGF or rCXCL12, irrespective of the chemotactic stimulus",significantly reduced the migration of myeloid BMDCs; also recorded: decreased migration of myeloid BMDCs
COc1cc2c(Oc3ccc4[nH]c(C)cc4c3F)ncnc2cc1OCCCN1CCCC1 [cediranib],circulating CXCL12,"CXCL12; recurrent GBM, P < 0.001",therapy increases
CNC(=O)c1cc(Oc2ccc(NC(=O)Nc3ccc(Cl)c(C(F)(F)F)c3)cc2)ccn1 [sorafenib],circulating CXCL12,"CXCL12; advanced sarcoma, P < 0.01",therapy increases
